According to patent US20240343699A1, “DERIVATIVES OF SUBSTITUTED MORPHOLINES AND USES THEREOF” (Supernus Pharmaceuticals, Inc., priority 2023, published 2024):
“Also recorded” adds a separate entry of the source.

Assays:
[1] = Stability in fluid matrices SGF, SIF and PBS; format: physicochemical; conditions: 37° C.
Experimental: Simulated Gastric Fluid (SGF) was prepared with 34.2 mM NaCl, 80 μM sodium taurocholate, 20 μM of L-alpha phosphatidylcholine/lecithin, and 0.1 mg/mL of Pepsin. 1 M HCl was added dropwise to adjust the pH to 1.96. Simulated Intestinal Fluid (SIF) was prepared with sodium phosphate monobasic, 105.9 mM NaCl, […] sodium taurocholate, and […] of L-alpha phosphatidylcholine/lecithin. 1 N NaOH was added dropwise to adjust the pH to 5.98. Phosphate buffered saline (PBS) at pH 6.0 was made by titrating PBS at pH 7.4 with 1 M HCl.
(§1) Stability of Test Articles at Different pH Values. 10 mM stock solutions of COMPOUND A were prepared in DMSO. From this stock solution, a single concentration in a 10 μL aliquot was added to three fluid matrices: SGF at pH 2.0 (gastric), SIF at pH 6.0 (upper intestine), and PBS at 7.4 (systemic). The final volume was 1 mL (0.1 mM). The preparations were then incubated at 37° C. and samples were collected at 0, 15, 30, 60, and 120 min for analysis of parent material by LC/MS/MS. The collected sample was quenched in acetonitrile/0.1% formic acid mixture. Red Blood Cell (RBC): Human and rat blood were centrifuged to separate out red blood cells at […] for 15 min. The upper plasma level was aspirated with a micropipette and placed in a bleach solution for disposal. The RBC pellet was resuspended in sterile isotonic saline. The pellet was gently resuspended by rocking the tube. The sample was then centrifuged again to collect the RBC pellet and then resuspended and washed one more time following the same procedure. A total of three was done. Following the last wash and centrifugation, the RBCs were resuspended with PBS; and mixed by inversion. Aliquots of the resuspended and washed RBCs were then placed into 4 reaction tubes. These tubes were centrifuged to collect the RBCs. The fluid level was marked on each tube, then the supernatant was aspirated off and the cells resuspended with room temperature PBS pH 7.4 to the original mark. An aliquot of the RBC suspension was added to four sterile tubes containing PBS pH 7.4 at room temperature.

rat red blood cells = assay: Hemolysis in rat blood; format: cell-based
Experimental: as §1
Stability in Human and Rat Red Blood cells and Hemolysis. […] After centrifugation, 70 μL of supernatant (without disturbing the pellet) was transferred to a clean and clear polystyrene flat bottomed 96-well plate and the absorbance of the sample at a single wavelength was measured using a Bio Tech Synergy Hl Plate Reader at a wavelength of 410 nm. […] Stability was measured by measuring loss of parent compound using LC/MS/MS.

[2] = Stability in human gut microbiota (fecal matter); format: in vitro ADME; conditions: pH 6 and 7.4, all time points
Experimental: Stability in Rat and Human Gut Microbiota. Rat fecal material was obtained and weighed. One capsule of the raw probiotics was crushed and weighed prior to use. The weighed samples were then solubilized in PBS at pH 6.0 and 7.4 to extract microorganisms. The samples were centrifuged at 18,000×g for 10 min to remove particulates and the supernatant was used to evaluate test article stability. An aliquot (50 μL) of the COMPOUND A stock solution was added to the fecal extract (final concentration 0.5 mM) and allowed to incubate at 37° C. Aliquots were collected at 0, 15, 30, 60, and 120 min and analyzed by LC/MS/MS to determine stability of the parent molecule. The collected sample was quenched in acetonitrile/0.1% formic acid mixture.

anxiety-like behavior = assay: Elevated plus maze (EPM); format: in vivo, male Wistar rats; conditions: for Closed arm entries / Closed arm returns / Head dips in open arms / Stretch-attend postures / Time in closed arms / Time in open arms / Total arm entries: mean; for % Time in open arms / Open Arm Entries / Total distance travelled: mean ± S.E.M.
[3] = PK after single PO administration of COMPOUND A
[4] = 30 mg/kg PO 20 min prior to EPM
[5] = 60 mg/kg PO 20 min prior to EPM
[6] = 120 mg/kg PO 40 min prior to EPM

## CCOc1ccccc1OC[C@@H]1CN(C(=O)OC(C)OC(=O)[C@@H](N)C(C)C)CCO1 (stereo partly shown) [COMPOUND A]
[1]; PBS pH 7.4, 0.1 mM
  stability in PBS (amount of parent compound): time-dependent decrease in the amount of parent compound
[1]; SGF pH 2.0, 0.1 mM, 0-120 min
  stability in SGF (LC/MS/MS peak area of parent): time-dependent decrease in the LC/MS/MS peak area until 20 min
[1]; SIF pH 6.0, 0.1 mM, all time points
  amount of parent compound in SIF: 100%
Rat red blood cells; rat blood, 25, 50, 100 μM, 1 hr
  hemolysis (% RBC lysis): no detectable hemolysis
Rat red blood cells; rat blood, 60 min exposure
  EC50 (% RBC lysis): outside the concentration range tested
[2]
  amount of parent compound in human fecal matter: ~100%
anxiety-like behavior; [4]
  Closed arm entries: 10.00
  Closed arm returns: 2.00
  Head dips in open arms: 2.25
  Stretch-attend postures: 18.00
  Time in closed arms: 282.58 s
  Time in open arms: 8.74 s
  Total arm entries: 11.00
  % Time in open arms: 2.91 ± 1.28%
  Open Arm Entries: 1.00 ± 0.33
  Total distance travelled: 1591.15 ± 73.52 cm
anxiety-like behavior; [5]
  Closed arm entries: 7.00
  Closed arm returns: 2.13
  Head dips in open arms: 3.63
  Stretch-attend postures: 18.63
  Time in closed arms: 281.10 s
  Time in open arms: 7.25 s
  Total arm entries: 7.63
  % Time in open arms: 2.42 ± 0.92%
  Open Arm Entries: 0.63 ± 0.18
  Total distance travelled: 1318.06 ± 39.58 cm
anxiety-like behavior; [6]
  Closed arm entries: 9.63
  Closed arm returns: 2.00
  Head dips in open arms: 2.25
  Stretch-attend postures: 20.38
  Time in closed arms: 283.06 s
  Time in open arms: 0.85 s
  Total arm entries: 9.88
  % Time in open arms: 0.28 ± 0.19%
  Open Arm Entries: 0.25 ± 0.16
  Total distance travelled: 1476.54 ± 60.73 cm
anxiety-like behavior; COMPOUND A 60 and 120 mg/kg p.o.
  total distance traveled vs vehicle: travelled a significantly shorter distance
[3]; 60 or 120 mg/kg PO
  Clinical observation (tolerability): well tolerated
[3]; COMPOUND A 60 or 120 mg/kg PO, LLOQ 1.5 ng/mL
  enantiomer R(+)-VLX in plasma: not detectable at most time points
[3]; COMPOUND A 60 or 120 mg/kg PO, LLOQ 3 ng/mL
  plasma concentration of the derivative itself: not detectable; also recorded: below LLOQ in all the samples collected
